Patent EP0983763A1, “PREVENTIVES FOR RECONSTRICTION” (TAISHO PHARMACEUTICAL CO. LTD, priority 1997, dated 1998)

Tests used:
[1] = system: intimal thickening; test: Inhibiting activity on intimal thickening in a model for vascular endothelial injury in normal rabbits (balloon catheter injury of right common carotid artery); type: in vivo, NZW strain male rabbits; details: for Level of intimal thickening I/M: 1 week before and 2 weeks after endothelium injury, Means ± S.E., control 0.251±0.030
Description: (§1) As test animals were used a group of 5 NZW strain male rabbits of 2 months (available from Kitayama RABES K.K.) After a drug was administered to rabbits for 1 week, a balloon catheter for removing arterial embolus (Fogarty catheter, E-060-2F, available from Baxter Co., Inc.) was inserted into the right common carotid artery via the right external carotid artery of the rabbits under anesthesia with pentobarbital. The right common carotid artery was abraded three times with the balloon swollen (a balloon pressure of 0.5-1.0 atm) to produce a model for the injured vascular endothelium. The drug was administered for 2 weeks after the endothelium injury, and then the artery was excised and fixed with 10% neutral buffered formalin to prepare a slice of the arterial ring tissue. Elastic fiber-stained tissue preparations were prepared by Elastic Van Gieson (EVG) staining. Areas of the intima (I) and of the medium (M) were measured by means of an image analysis system (Adobe Photoshop, Unitimage for the Apple Macintosh) and a ratio of both values (I/M) was calculated to determine a level of intimal thickening.
The drug was given in admixture with a rabbit feed RC-4 (available from Oriental Kobo K.K.) at the concentration of 0.0003% and a dose was calculated from the amount of feed ingested and the body weight.

[2] = system: smooth muscle cells; test: Histopathological observation of the thickened intima after injury of the blood vessel; type: in vivo; details: histopathologically observed; model and dose not stated
[3] = system: intimal thickening; test: Inhibiting activity on intimal thickening in a model for vascular endothelial injury in WHHL rabbits (balloon catheter injury of right common carotid artery); type: in vivo, WHHL strain male rabbits; details: for Level of intimal thickening I/M: 4 weeks after endothelium injury, Means ± S.E., control 1.00±0.23
Source text: as §1, with “of 4 homozygous hereditary hyperlipemic WHHL” for “of 5 NZW”, “K.K.) A” for “K.K.) After a drug was administered to rabbits for 1 week, a”, “for 4” for “for 2”, “thickening. A total blood cholesterol level was measured according to an enzyme method (Autosera CHO-2, Daiichi Kagaku Yakuhin K.K.) using an autoanalyzer (Hitachi 7150 type).” for “thickening.”
(§2) The drug was given in admixture with a rabbit feed RC-4 (available from Oriental Kobo K.K.) at the concentrations of 0.0003% and of 0.003%, and then a dose was calculated from the amount of feed ingested and the body weight.

[4] = Total blood cholesterol level by enzyme method in the WHHL rabbit endothelial injury model; type: in vivo, WHHL strain male rabbits; details: WHHL rabbits, 4 weeks after endothelium injury, Means ± S.E., control 841±44
Source text: as §1, with “of 4 homozygous hereditary hyperlipemic WHHL” for “of 5 NZW”, “K.K.) A” for “K.K.) After a drug was administered to rabbits for 1 week, a”, “for 4” for “for 2”, “thickening. A total blood cholesterol level was measured according to an enzyme method (Autosera CHO-2, Daiichi Kagaku Yakuhin K.K.) using an autoanalyzer (Hitachi 7150 type).” for “thickening.”
as §2

SMILES: CCCCCCCCCCCCCCSCC(=O)Nc1c(C(C)C)cccc1C(C)C [Compound of the invention]
- Level of intimal thickening I/M ([1]; 0.2 mg/kg (0.0003% in feed)): 0.126±0.028
- inhibition at 0.2 mg/kg ([1]; Oryctolagus cuniculus, feed or water, 0.2 mg/kg (0.0003% in feed), from I/M ratio vs control group): 49.8%
- number of smooth muscle cells during the proliferation period in the thickened intima [2]: decrease the number of smooth muscle cells
- Level of intimal thickening I/M ([3]; 0.2 mg/kg (0.0003% in feed)): 0.45±0.19
- Level of intimal thickening I/M ([3]; 2.0 mg/kg (0.003% in feed)): 0.38±0.05
- inhibition at 0.2 mg/kg ([3]; Oryctolagus cuniculus, 0.2 mg/kg, from I/M ratio vs control group): 55%
- inhibition at 2 mg/kg ([3]; Oryctolagus cuniculus, 2.0 mg/kg, from I/M ratio vs control group): 62%
- Total blood cholesterol ([4]; 0.2 mg/kg (0.0003% in feed)): 861 ± 83 mg/dL
- Total blood cholesterol ([4]; 2.0 mg/kg (0.003% in feed)): 907 ± 48 mg/dL

SMILES: CC(C)(Sc1cc(C(C)(C)C)c(O)c(C(C)(C)C)c1)Sc1cc(C(C)(C)C)c(O)c(C(C)(C)C)c1 [Probucol, probucol, reference compound]
- Level of intimal thickening I/M ([3]; 190 mg/kg (0.35% in feed)): 0.43±0.08
- inhibition at 190 mg/kg ([3]; Oryctolagus cuniculus, 190 mg/kg, from I/M ratio vs control group): 57%
- Total blood cholesterol ([4]; 190 mg/kg (0.35% in feed)): 723 ± 44 mg/dL

SMILES: COc1ccc(/C=C/C(=O)Nc2ccccc2C(=O)O)cc1OC [Tranilast, tranilast, reference compound]
- Level of intimal thickening I/M ([1]; 100 mg/kg (0.167% in feed)): 0.184±0.051
- inhibition at 100 mg/kg ([1]; Oryctolagus cuniculus, feed or water, 100 mg/kg (0.167% in feed), from I/M ratio vs control group): 26.6%
